One series addresses T1, wild-type human PTHR (Homo sapiens, UniProt Q03431).
T1 construct: expressed in transfected cells
T1 sequence (Q03431 27-593): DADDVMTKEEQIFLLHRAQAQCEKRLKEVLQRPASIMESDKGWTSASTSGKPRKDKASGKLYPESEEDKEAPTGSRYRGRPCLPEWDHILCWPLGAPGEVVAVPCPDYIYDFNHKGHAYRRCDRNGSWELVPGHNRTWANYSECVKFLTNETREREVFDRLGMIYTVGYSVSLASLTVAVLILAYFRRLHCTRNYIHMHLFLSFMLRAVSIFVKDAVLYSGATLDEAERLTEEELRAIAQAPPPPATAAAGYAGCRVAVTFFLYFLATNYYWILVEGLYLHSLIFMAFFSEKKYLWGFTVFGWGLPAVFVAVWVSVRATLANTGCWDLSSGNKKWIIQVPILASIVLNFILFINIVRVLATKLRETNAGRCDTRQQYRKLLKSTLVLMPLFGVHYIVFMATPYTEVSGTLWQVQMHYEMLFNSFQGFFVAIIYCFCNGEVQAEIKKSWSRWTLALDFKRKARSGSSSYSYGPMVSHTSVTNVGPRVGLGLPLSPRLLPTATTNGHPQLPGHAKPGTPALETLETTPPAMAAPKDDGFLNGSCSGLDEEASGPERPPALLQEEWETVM
The series is described as follows: Competition binding in intact HKRK-B7 cells with 125I-PTH(1-34) tracer. The settings on record: for reduction (alteration) of apparent binding affinity for the intact PTHR relative to parent peptide / detectable binding to the intact PTHR (in words): HKRK-B7 cells; for reduction (alteration) of apparent binding affinity for the intact PTHR relative to parent peptide: versus the respective parent peptide; for IC50: intact HKRK-B7 cells, read-out: PTHR-WT (HKRK-B7 cells) IC50. The method, then:
Cell Culture—Cells were cultured at 37° C. in a humidified atmosphere containing 5% CO2 in Dulbecco's modified Eagle's medium (DMEM), supplemented with 10% fetal bovine serum (HyClone, Logan Utah), 100 units/ml penicillin G, and 100 ug/ml streptomycin penicillin G/streptomycin (Invitrogen Corp. Carlsbad, Calif.). For binding and cAMP studies performed with the intact PTHR, the HKRK-B7 and ROS 17/2.8 cell lines were used. HKRK-B7 cells are derived from the porcine kidney cell line LLC-PK1 and express, via stable DNA transfection, the wild-type human PTHR at an approximate surface density of 950,000 PTH-binding sites per cell. ROS 17/2.8 cells are rat osteosarcoma cells and express the endogenous PTHR at an approximate surface density of 80,000 PTH-binding sites per cell. The cells were plated and assayed in 24-well plates.
Receptor binding—Binding to the wild-type human PTHR in intact HKRK-B7 cells and ROS 17/2.8 cells was assessed using ^125I-PTH(1-34) as a tracer radioligand, as described (Shimizu, M., (2001) Endocrinology 142:3068-3074). In brief, the cells in 24-well plates (about 500,000 cells per well) were incubated in binding buffer containing radioligand (about 100,000 cpm per well) with or without unlabeled peptide ligand (3×10^−9 to 1×10^−5 M) for four hours at 15° C. The binding mixture was then removed by aspiration, the cells were rinsed three times with binding buffer, lysed in 1 M NaOH, and the entire lysate was counted for gamma-irradiation in a gamma counter. Binding to PTHR-delNt in COS-7 cell membranes was assessed in 96-well, vacuum filtration plates (Multiscreen-Durapore HV, […] membranes, Millipore Corp., Millford, Mass.) using ^125I-[Aib^1,3,M]PTH(1-15)NH2 as a tracer radioligand, as described (Dean, T., (2006) Mol Endocrinol 20:931-942). In brief, cell membranes (20 μg/well) were incubated in membrane binding buffer containing radioligand (30,000 cpm/well) with or without unlabeled peptide ligand (3×10^−9 to 1×10^−5 M) for 90 minutes at 21° C. The plates were then subject to rapid vacuum filtration, the filters were washed once with buffer, detached from the plate and counted for gamma-irradiation in a gamma counter. Non-specific binding was defined as the binding observed in the presence of 1×10^−6 M PTH(1-31)NH2 for HKRK-B7 and ROS 17/2.8 cells, and 1×10^−6 M [Aib^1,3,M]PTH(1-15)NH2 for PTHR-delNt. Specifically bound radioactivity was calculated as a percentage of the radioactivity specifically bound in the absence of competing ligand.
Data and statistical calculations—Data were processed for curve fitting and derivation of IC50 and EC50 values using least-squares, nonlinear regression analysis and the four parameter logistic equation: […], where y, ymin and ymax are the observed, minimum and maximum response values, respectively; x is ligand concentration, and n is the slope factor. In cases where incomplete inhibition of binding occurred: i.e. with certain PTH(1-31) analogs binding to PTHR-delNt, the curve fits and IC50 values were derived by extrapolating the data to the maximum inhibition attained by [Aib^1,3,M]PTH(1-15)NH2. Paired data sets were statistically compared using a two-tailed Student's t-test, assuming unequal variances for the two sets.

A short description of series [1]: Circular dichroism spectroscopy, helical residues per peptide chain. Type of series: physicochemical. The settings on record: calculated from [θ]222. An outline of the steps: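 CD spectra recorded at 20 °C, four scans averaged; peptide concentration checked by A280 with the single-Trp extinction coefficient of 5700 M^−1. Helical residues per chain calculated as −[θ]222×30/28,000 from mean residue ellipticity at 222 nm.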

Setting [2] is: [Ala1,Arg19]hPTH(1-31)NH2 analogs.
[3] abbreviates: hPTH(1-31)NH2 analogs, 125I-[Nle8,21,Tyr34]ratPTH(1-34)NH2 tracer.
Setting [4] is: [Ala1,Arg19]hPTH(1-31)NH2 analogs, 125I-[Nle8,21,Tyr34]rPTH(1-34)NH2 tracer.

Like-named read-outs stand apart in the source and are kept apart here. Where a SMILES comes first, the peptide text is derived from it. Where no end group is shown, it is not given here. [ ]: non-standard residue; d: D form. Apa = (S)-2-amino-4[(2-amino)pyrimidinyl]methylalanine; Phe(4-guanidino) = N=C(N)Nc1ccc(C[C@H](N)C(=O)O)cc1; Cha = N[C@@H](CC1CCCCC1)C(=O)O; Orn = NCCC[C@H](N)C(=O)O Some results are limits rather than exact numbers.

On to `CC[C@H](C)[C@H](NC(=O)[C@H](CCC(=O)O)NC(=O)[C@H](CO)NC(=O)[C@@H](NC(=O)[C@H](C)N)C(C)C)C(=O)N[C@@H](CCC(N)=O)C(=O)N[C@@H](CC(C)C)C(=O)N[C@@H](CCSC)C(=O)N[C@@H](Cc1c[nH]cn1)C(=O)N[C@@H](CC(N)=O)C(=O)N[C@@H](CC(C)C)C(=O)NCC(=O)N[C@@H](CCCCN)C(=O)N[C@@H](Cc1c[nH]cn1)C(=O)N[C@@H](CC(C)C)C(=O)N[C@@H](CC(N)=O)C(=O)N[C@@H](CO)C(=O)N[C@@H](CCSC)C(=O)N[C@@H](CCCNC(=N)N)C(=O)N[C@@H](CC1CCCCC1)C(=O)N[C@H](C(=O)N[C@@H](CCC(=O)O)C(=O)N[C@@H](Cc1c[nH]c2ccccc12)C(=O)N[C@@H](CC(C)C)C(=O)N[C@@H](CCCNC(=N)N)C(=O)N[C@@H](CCCCN)C(=O)N[C@@H](CCCCN)C(=O)N[C@@H](CC(C)C)C(=O)N[C@@H](CCC(N)=O)C(=O)N[C@@H](CC(=O)O)C(=O)N[C@H](C(N)=O)C(C)C)C(C)C` [Arg^20→Cha, AlaValSerGluIleGlnLeuMetHisAsnLeuGlyLysHisLeuAsnSerMetArgChaValGluTrpLeuArgLysLysLeuGlnAspVal] (H-AVSEIQLMHNLGKHLNSMR[Cha]VEWLRKKLQDV-NH2; N-terminus assumed), for which the “reduction (alteration) of apparent binding affinity for the intact PTHR relative to parent peptide” value at wild-type human PTHR came out at 120 fold. Also, the CD helical residues in series [1] (setting [2]) is reported as 16.
Consider `CC[C@H](C)[C@H](NC(=O)[C@H](CCC(=O)O)NC(=O)[C@H](CO)NC(=O)[C@@H](NC(=O)[C@@H](N)CO)C(C)C)C(=O)N[C@@H](CCC(N)=O)C(=O)N[C@@H](CC(C)C)C(=O)N[C@@H](CCSC)C(=O)N[C@@H](Cc1c[nH]cn1)C(=O)N[C@@H](CC(N)=O)C(=O)N[C@@H](CC(C)C)C(=O)NCC(=O)N[C@@H](CCCCN)C(=O)N[C@@H](Cc1c[nH]cn1)C(=O)N[C@@H](CC(C)C)C(=O)N[C@@H](CC(N)=O)C(=O)N[C@@H](CO)C(=O)N[C@@H](CCSC)C(=O)N[C@@H](CCC(=O)O)C(=O)N[C@@H](Cc1ccc(NC(=N)N)cc1)C(=O)N[C@H](C(=O)N[C@@H](CCC(=O)O)C(=O)N[C@@H](Cc1c[nH]c2ccccc12)C(=O)N[C@@H](CC(C)C)C(=O)N[C@@H](CCCNC(=N)N)C(=O)N[C@@H](CCCCN)C(=O)N[C@@H](CCCCN)C(=O)N[C@@H](CC(C)C)C(=O)N[C@@H](CCC(N)=O)C(=O)N[C@@H](CC(=O)O)C(=O)N[C@H](C(N)=O)C(C)C)C(C)C` [Arg^20→Gph] (H-SVSEIQLMHNLGKHLNSME[Phe(4-guanidino)]VEWLRKKLQDV-NH2; N-terminus assumed), for which the “detectable binding to the intact PTHR (in words)” value (“detectable binding” for short) on wild-type human PTHR was “complete loss of detectable binding affinity”. Besides, the IC50 at wild-type human PTHR (setting [3]) is more than 10 µM.
With `CC[C@H](C)[C@H](NC(=O)[C@H](CCC(=O)O)NC(=O)[C@H](CO)NC(=O)[C@@H](NC(=O)[C@@H](N)CO)C(C)C)C(=O)N[C@@H](CCC(N)=O)C(=O)N[C@@H](CC(C)C)C(=O)N[C@@H](CCSC)C(=O)N[C@@H](Cc1c[nH]cn1)C(=O)N[C@@H](CC(N)=O)C(=O)N[C@@H](CC(C)C)C(=O)NCC(=O)N[C@@H](CCCCN)C(=O)N[C@@H](Cc1c[nH]cn1)C(=O)N[C@@H](CC(C)C)C(=O)N[C@@H](CC(N)=O)C(=O)N[C@@H](CO)C(=O)N[C@@H](CCSC)C(=O)N[C@@H](CCC(=O)O)C(=O)N[C@@H](CCCN)C(=O)N[C@H](C(=O)N[C@@H](CCC(=O)O)C(=O)N[C@@H](Cc1c[nH]c2ccccc12)C(=O)N[C@@H](CC(C)C)C(=O)N[C@@H](CCCNC(=N)N)C(=O)N[C@@H](CCCCN)C(=O)N[C@@H](CCCCN)C(=O)N[C@@H](CC(C)C)C(=O)N[C@@H](CCC(N)=O)C(=O)N[C@@H](CC(=O)O)C(=O)N[C@H](C(N)=O)C(C)C)C(C)C` [Arg^20→Orn] (H-SVSEIQLMHNLGKHLNSME[Orn]VEWLRKKLQDV-NH2; N-terminus assumed), at wild-type human PTHR (setting [3]), the IC50 was more than 10 µM. The CD helical residues in series [1] (hPTH(1-31)NH2 analogs) was 6.
As to `CC[C@H](C)[C@H](NC(=O)[C@H](CCC(=O)O)NC(=O)[C@H](CO)NC(=O)[C@@H](NC(=O)[C@H](C)N)C(C)C)C(=O)N[C@@H](CCC(N)=O)C(=O)N[C@@H](CC(C)C)C(=O)N[C@@H](CCSC)C(=O)N[C@@H](Cc1c[nH]cn1)C(=O)N[C@@H](CC(N)=O)C(=O)N[C@@H](CC(C)C)C(=O)NCC(=O)N[C@@H](CCCCN)C(=O)N[C@@H](Cc1c[nH]cn1)C(=O)N[C@@H](CC(C)C)C(=O)N[C@@H](CC(N)=O)C(=O)N[C@@H](CO)C(=O)N[C@@H](CCSC)C(=O)N[C@@H](CCCNC(=N)N)C(=O)N[C@@H](CCCNC(=N)N)C(=O)N[C@H](C(=O)N[C@@H](CCC(=O)O)C(=O)N[C@@H](Cc1c[nH]c2ccccc12)C(=O)N[C@@H](CC(C)C)C(=O)N[C@@H](CCCNC(=N)N)C(=O)N[C@@H](CCCCN)C(=O)N[C@@H](CCCCN)C(=O)N[C@@H](CC(C)C)C(=O)N[C@@H](CCC(N)=O)C(=O)N[C@@H](CC1CCCCC1)C(=O)N[C@H](C(N)=O)C(C)C)C(C)C` [Asp^30→Cha] (H-AVSEIQLMHNLGKHLNSMRRVEWLRKKLQ[Cha]V-NH2; N-terminus assumed), the IC50 on wild-type human PTHR (setting [4]) is 0.054 ± 0.007 µM. The CD helical residues in series [1] (setting [2]) is reported as 8.
On to “AVSEIQLMHNLGKHLNSMERVEWLRKKLQDV-NH2 [Arg^19→Glu]”, for which, at wild-type human PTHR, the “reduction (alteration) of apparent binding affinity for the intact PTHR relative to parent peptide” value is “two- to five-fold reductions”. Besides, the IC50 on wild-type human PTHR (setting [4]) was determined as 0.125 ± 0.029 µM. Also, the CD helical residues in series [1] (setting [2]) is on record as 9.
Take “AVSEIQLMHNLGKHLNSMRREEWLRKKLQDV-NH2 [Val^21→Glu]”: the “reduction (alteration) of apparent binding affinity for the intact PTHR relative to parent peptide” value on wild-type human PTHR is 12 fold. The CD helical residues in series [1] (setting [2]) was 7.
Turning to “AVSEIQLMHNLGKHLNSMRRVEWERKKLQDV-NH2 [Leu^24→Glu]”, on wild-type human PTHR, the “detectable binding” value is recorded as “abolished detectable binding”. Also, the IC50 on wild-type human PTHR (setting [4]) was more than 10 µM. Also, the CD helical residues in series [1] (setting [2]) is 6.
As to “AVSEIQLMHNLGKHLNSMRRVEWLEKKLQDV-NH2 [Arg^25→Glu]”, the “reduction (alteration) of apparent binding affinity for the intact PTHR relative to parent peptide” value at wild-type human PTHR is “two- to five-fold reductions”. For the same compound, the CD helical residues in series [1] (setting [2]) was 5.
On the same counts, the results for “AVSEIQLMHNLGKHLNSMRRVEWLREKLQDV-NH2 [Lys^26→Glu]” are “two- to five-fold reductions” and 6.
On the same counts, the results for “AVSEIQLMHNLGKHLNSMRRVEWLRKELQDV-NH2 [Lys^27→Glu]” are “two- to five-fold reductions” and 5.
Regarding “Arg^20→Apa: hPTH(1-31)NH2 analog with Arg^20 replaced by (S)-2-amino-4[(2-amino)pyrimidinyl]methylalanine (Apa) (SVSEIQLMHNLGKHLNSME[Apa]VEWLRKKLQDV-NH2)”, in the series with wild-type human PTHR, the “detectable binding” value was “complete loss of detectable binding affinity”. In addition, the IC50 with wild-type human PTHR (setting [3]) was more than 10 µM.

The IC50 is the midpoint of a concentration-inhibition curve.

The values are drawn from patent US8143374B2, “Polypeptide derivatives of parathyroid hormone (PTH)” (The General Hospital Corporation, priority 2006, dated 2012).
